Assay results published in patent US11384079B2, “6-5 fused rings as C5a inhibitors” (CHEMOCENTRYX, INC., priority 2017, dated 2022).

Target: T1, C5aR (Homo sapiens, UniProt P21730)
T1 construct: U937 cells are a monocytic cell line which express C5aR; host or cells: U937 cells (cAMP treated) or isolated neutrophils
T1 sequence (P21730 1-350): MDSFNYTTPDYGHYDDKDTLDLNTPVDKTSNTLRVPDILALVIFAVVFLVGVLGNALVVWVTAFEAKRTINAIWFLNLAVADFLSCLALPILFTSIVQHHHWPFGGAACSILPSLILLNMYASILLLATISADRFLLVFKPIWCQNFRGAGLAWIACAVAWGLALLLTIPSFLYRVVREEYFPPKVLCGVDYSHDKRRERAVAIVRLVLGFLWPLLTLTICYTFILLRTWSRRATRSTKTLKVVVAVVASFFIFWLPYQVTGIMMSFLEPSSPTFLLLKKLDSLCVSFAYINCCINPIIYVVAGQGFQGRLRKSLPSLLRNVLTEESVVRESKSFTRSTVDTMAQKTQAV
Assay: chemotaxis assay (C5aR mediated migration)
Type: cell-based
Conditions: migration of U937 or neutrophil cells toward C5a (0.03 nM), 1.5 hours at 37° C., read-out: Mig IC50
Experimental: U937 cells are a monocytic cell line which express C5aR, and are available from ATCC (VA). […] Cells were grown under 5% CO2/95% air, 100% humidity at 37° C. and subcultured twice weekly at 1:6 (cells were cultured at a density range of 1×10^5 to 2×10^6 cells/mL) and harvested at 1×10^6 cells/mL. Prior to assay, cells are treated overnight with 0.5 mM of cyclic AMP (Sigma, Ohio) and washed once prior to use. cAMP treated U937 cells can be used in C5aR ligand binding and functional assays.
Optionally, human or murine neutrophils can be used to assay for compound activity. Neutrophils may be isolated from fresh human blood using density separation and centrifugation. Briefly, whole blood is incubated with equal parts 3% dextran and allowed to separate for 45 minutes. After separation, the top layer is layered on top of 15 mls of Ficoll (15 mls of Ficoll for every 30 mls of blood suspension) and centrifuged for 30 minutes at 400×g with no brake. The pellet at the bottom of the tube is then isolated and resuspended into PharmLyse RBC Lysis Buffer (BD Biosciences, San Jose, Calif.) after which the sample is again centrifuged for 10 minutes at 400×g with brake. The remaining cell pellet is resuspended as appropriate and consists of isolated neutrophils.
Optionally, compounds may be further assayed for their ability to inhibit chemotaxis in cells. Chemotaxis assays are performed using 5 μm pore polycarbonate, polyvinylpyrrolidone-coated filters in 96-well chemotaxis chambers (Neuroprobe; Gaithersburg, Md.) using chemotaxis buffer (Hank's balanced salt solution (HBSS) and 1% FBS). C5aR ligands (i.e., C5a, R&D Systems; Minneapolis, Minn.) are use to evaluate compound mediated inhibition of C5aR mediated migration. Other chemokines (i.e., SDF-1α; R&D Systems; Minneapolis, Minn.) are used as specificity controls. […] The chambers are incubated 1.5 hours at 37° C., and the number of cells in the lower chamber quantified either by direct cell counts in five high powered fields per well or by the CyQuant assay (Molecular Probes), a fluorescent dye method that measures nucleic acid content and microscopic observation.

| SMILES | IC50 [nM] |
| --- | --- |
| CCc1cccc(CC)c1-n1nc2c(c1-c1ccc(OC)c3[nH]ncc13)CN(c1ncc(C(F)(F)F)cn1)CC2 [Example 1.053] | < 5 |
| CCc1cccc(CC)c1-n1nc2c(c1-c1cc(F)c(OC)c3[nH]ccc13)CN(c1ncc(OC(C)C)cn1)CC2 [Example 1.054] | < 5 |
| CCc1cccc(CC)c1-n1nc2c(c1-c1c(F)cc(Cl)c3[nH]ccc13)CN(c1ncc(CN3CCCC3)cn1)CC2 [Example 1.055] | 5 to 50 |
| CCc1cccc(CC)c1-n1nc2c(c1-c1cc(F)c(OC)c3[nH]ncc13)CN(c1ncc(C(F)(F)F)cn1)CC2 [Example 1.056] | < 5 |
| CCc1cccc(CC)c1-n1nc2c(c1-c1ccc(Cl)c3[nH]ccc13)CN(c1cnccn1)CC2 [Example 1.057] | < 5 |
| CCc1cccc(CC)c1-n1nc2c(c1-c1ccc(Cl)c3[nH]ccc13)CN(c1cnc(C(F)(F)F)cn1)CC2 [Example 1.058] | < 5 |
| CCc1cccc(CC)c1-n1nc2c(c1-c1cc(F)c(OC)c3[nH]ccc13)CN(c1ncc(C(F)(F)F)cn1)CC2 [Example 1.059] | < 5 |
| Cc1cccc(C)c1-n1nc2c(c1-c1ccc(Cl)c3[nH]ccc13)CN(c1ncc(C(F)(F)F)cn1)CC2 [Example 1.060] | < 5 |
| CCc1cccc(CC)c1-n1nc2c(c1-c1cc(F)c(OC)c3[nH]ccc13)CN(c1ncc(C(F)(F)F)cc1F)CC2 [Example 1.061] | < 5 |
| CCc1cccc(CC)c1-n1nc2c(c1-c1c(F)cc(Cl)c3[nH]ccc13)CN(c1ncc(C3CC3)cc1F)CC2 [Example 1.062] | < 5 |
| CCc1cccc(CC)c1-n1nc2c(c1-c1ccc(Cl)c3[nH]ccc13)CN(c1ncc(OC(C)C)cn1)CC2 [Example 1.063] | < 5 |
| CCc1cccc(CC)c1-n1nc2c(c1-c1ccc(Cl)c3[nH]ccc13)CN(c1ncc(C(N)=O)cn1)CC2 [Example 1.064] | 50 to 500 |
| CCc1cccc(CC)c1-n1nc2c(c1-c1ccc(Cl)c3[nH]ncc13)CN(c1ncc(C3CC3)cn1)CC2 [Example 1.065] | < 5 |
| CCc1cccc(CC)c1-n1nc2c(c1-c1c(F)cc(CO)c3[nH]ccc13)CN(c1ncc(C3CC3)cn1)CC2 [Example 1.066] | < 5 |
| CCc1cccc(CC)c1-n1nc2c(c1-c1ccc(Cl)c3[nH]ccc13)CN(c1cnc(C3CC3)cn1)CC2 [Example 1.067] | 5 to 50 |
| CCc1cccc(CC)c1-n1nc2c(c1-c1cc(F)c(CO)c3[nH]ccc13)CN(c1ncc(C(C)(C)O)cn1)CC2 [Example 1.068] | 5 to 50 |
| CCc1cccc(CC)c1-n1nc2c(c1-c1ccc(Cl)c3[nH]cnc13)CN(c1ncc(C(F)(F)F)cn1)CC2 [Example 1.069] | < 5 |
| CCc1cccc(CC)c1-n1nc2c(c1-c1c(F)cc(Cl)c3[nH]ccc13)CN(c1ncc(C3CC3)cn1)CC2 [Example 1.070] | < 5 |
| CCc1cccc(CC)c1-n1nc2c(c1-c1ccc(Cl)c3[nH]ccc13)CN(c1ncc(C3CC3)cc1F)CC2 [Example 1.071] | < 5 |
| CCc1cccc(CC)c1-n1nc2c(c1-c1ccc(Cl)c3[nH]ccc13)CN(c1ncc(C)c(CO)n1)CC2 [Example 1.072] | 5 to 50 |
| CCc1cccc(CC)c1-n1nc2c(c1-c1ccc(Cl)c3[nH]ccc13)CN(c1ncc(C3CC3)cc1Cl)CC2 [Example 1.073] | < 5 |
| CCc1cccc(CC)c1-n1nc2c(c1-c1ccc(Cl)c3[nH]ccc13)CN(c1ncc(C(C)(C)O)cn1)CC2 [Example 1.074] | < 5 |
| CCc1cccc(CC)c1-n1nc2c(c1-c1ccc(Cl)c3[nH]ccc13)CN(c1ncc(C)c(C(=O)O)n1)CC2 [Example 1.075] | 50 to 500 |
| CCc1cccc(CC)c1-n1nc2c(c1-c1c(F)cc(Cl)c3[nH]ccc13)CN(c1ncc(C(=O)N3CCCC3)cn1)CC2 [Example 1.076] | < 5 |
| CCc1cccc(CC)c1-n1nc2c(c1-c1cc(F)c(CO)c3[nH]ccc13)CN(c1ncc(C(F)(F)F)cn1)CC2 [Example 1.077] | < 5 |
| CCc1cccc(CC)c1-n1nc2c(c1-c1cc(F)c(CO)c3[nH]ccc13)CN(c1ncc(C(F)(F)F)cc1F)CC2 [Example 1.078] | < 5 |

| SMILES | IC50 [nM] |
| --- | --- |
| CCc1cccc(CC)c1-n1nc2c(c1-c1ccc(F)c3[nH]ncc13)CN(c1ncc(C(F)(F)F)cc1F)CC2 [Example 1.079] | 50 to 500 |
| CCc1cccc(CC)c1-n1nc2c(c1-c1cc(Cl)c(C)c3[nH]ccc13)CN(c1ncc(C(F)(F)F)cc1F)CC2 [Example 1.080] | < 5 |
| CCc1cccc(CC)c1-n1nc2c(c1-c1cc(Cl)c(C)c3[nH]ccc13)CN(c1ncc(C(F)(F)F)cn1)CC2 [Example 1.081] | < 5 |
| CCc1cccc(CC)c1-n1nc2c(c1-c1ccc3[nH]ccc3c1)CN(c1ncc(C(F)(F)F)cc1F)CC2 [Example 1.082] | 5 to 50 |
| CCc1cccc(CC)c1-n1nc2c(c1-c1cc(F)c3[nH]ccc3c1)CN(c1ncc(C(F)(F)F)cc1F)CC2 [Example 1.083] | 5 to 50 |
| CCc1cccc(CC)c1-n1nc2c(c1-c1cc(F)c(Cl)c3[nH]ccc13)CN(c1ncc(C(F)(F)F)cn1)CC2 [Example 1.084] | < 5 |
| CCc1cccc(CC)c1-n1nc2c(c1-c1cc(F)c(Cl)c3[nH]ccc13)CN(c1ncc(C(F)(F)F)cc1F)CC2 [Example 1.085] | < 5 |
| CCc1cccc(CC)c1-n1nc2c(c1-c1ccc(Cl)c3[nH]ccc13)CN(c1ccc(OC(F)(F)F)cn1)CC2 [Example 1.086] | < 5 |
| CCc1cccc(CC)c1-n1nc2c(c1-c1ccc(OC)c3[nH]ccc13)CN(c1ncc(C(F)(F)F)cn1)CC2 [Example 1.087] | 5 to 50 |
| CCc1cccc(CC)c1-n1nc2c(c1-c1ccc(Cl)c3[nH]ccc13)CN(c1ncc(C(F)(F)F)cc1C)CC2 [Example 1.088] | < 5 |
| CCc1cccc(CC)c1-n1nc2c(c1-c1ccc(OC)c3[nH]ccc13)CN(c1ncc(C(F)(F)F)cc1F)CC2 [Example 1.089] | 5 to 50 |
| Cc1cccc(C)c1-n1nc2c(c1-c1c(F)cc(CO)c3[nH]ccc13)CN(c1ncc(C(F)(F)F)cn1)CC2 [Example 1.090] | 5 to 50 |
| Cc1cccc(C)c1-n1nc2c(c1-c1c(F)cc(C)c3[nH]ccc13)CN(c1ncc(Cl)cc1F)CC2 [Example 1.091] | 5 to 50 |
| Cc1cccc(C)c1-n1nc2c(c1-c1c(F)cc(C)c3[nH]ccc13)CN(c1ncc(C(F)(F)F)cn1)CC2 [Example 1.092] | < 5 |
| CCc1cccc(CC)c1-n1nc2c(c1-c1cc(F)c(C)c3[nH]ccc13)CN(c1ncc(C(F)(F)F)cn1)CC2 [Example 1.093] | < 5 |
| CCc1cccc(CC)c1-n1nc2c(c1-c1c(F)cc(CO)c3[nH]ccc13)CN(c1ncc(C(C)C)cc1F)CC2 [Example 1.094] | < 5 |
| Cc1cccc(C)c1-n1nc2c(c1-c1c(F)cc(C)c3[nH]ccc13)CN(c1ncc(C(F)(F)F)cc1F)CC2 [Example 1.095] | < 5 |
| Cc1cccc(C)c1-n1nc2c(c1-c1c(F)cc(C)c3[nH]ccc13)CN(c1ncc(C(C)C)cn1)CC2 [Example 1.096] | < 5 |
| CCc1cccc(CC)c1-n1nc2c(c1-c1ccc(Cl)c3[nH]ccc13)CN(c1ncc(CO)cn1)CC2 [Example 1.097] | 5 to 50 |
| CCc1cccc(CC)c1-n1nc2c(c1-c1c(F)cc(CO)c3[nH]ccc13)CN(c1ncc(C(C)C)cn1)CC2 [Example 1.098] | < 5 |
| CCc1cccc(CC)c1-n1nc2c(c1-c1ccc(Cl)c3[nH]ccc13)CN(c1ncc(Cl)cc1F)CC2 [Example 1.099] | < 5 |
| CCc1cccc(CC)c1-n1nc2c(c1-c1c(F)cc(CO)c3[nH]ccc13)CN(c1ccc(C(F)(F)F)cn1)CC2 [Example 1.100] | < 5 |
| CCc1cccc(CC)c1-n1nc2c(c1-c1c(F)cc(CO)c3[nH]ccc13)CN(c1ncc(C(F)(F)F)cn1)CC2 [Example 1.101] | < 5 |
| Cc1cccc(C)c1-n1nc2c(c1-c1cc(F)c(C)c3[nH]ccc13)CN(c1ncc(C(F)(F)F)cn1)CC2 [Example 1.102] | 5 to 50 |
| Cc1cccc(C)c1-n1nc2c(c1-c1cc(F)c(C)c3[nH]ccc13)CN(c1ncc(C(F)(F)F)cc1F)CC2 [Example 1.103] | 5 to 50 |
| CCc1cccc(CC)c1-n1nc2c(c1-c1c(F)cc(CO)c3[nH]ccc13)CN(c1ncc(C(F)(F)F)cc1F)CC2 [Example 1.104] | < 5 |
